Results on 2 compounds are retold here after patent US10934277B2, “Enantiomerically purified GPER agonist for use in treating disease states and conditions” (Linnaeus Therapeutics, Inc., priority 2018, dated 2021).

For one data set, the system named is YUMM1.7 melanoma cells. The data set is described as follows: YUMM1.7 proliferation assay (4 day growth). It counts as cell-based. As to conditions: 500 nM; for doubling compared with that seen with the vehicle / Doublings: 4 days; for Doublings / cell count after 4 days of growth (single replicates) / average cell count after 4 days of growth: starting cell number 15,000; for cell count after 4 days of growth (single replicates): 5 replicates; for average cell count after 4 days of growth: average of 5 replicates. As for the experimental part: YUMM1.7 cells were cultured for at least 1 passage after thawing and were cultured in DMEM with 5% FBS (Invitrogen) and 1% antibiotic-antimycotic (gibco) at 37C 5% CO2. Proliferation assays were performed by plating 15,000 cells in 12-well plates with 5 replicates per condition tested. Media and drugs were refreshed on Day 2. On Day 4, cells were trypsinized using 0.25 ml 0.05% Trypsin with EDTA (Invitrogen) for 5 minutes to detach from the plate, mixed with 0.75 ml of culture media, and counted using a hemocytometer.
Starting cell numbers were 15,000.

A further data set addresses T1, OATP1B1 (Homo sapiens, UniProt Q9Y6L6).
T1 sequence (Q9Y6L6 1-691): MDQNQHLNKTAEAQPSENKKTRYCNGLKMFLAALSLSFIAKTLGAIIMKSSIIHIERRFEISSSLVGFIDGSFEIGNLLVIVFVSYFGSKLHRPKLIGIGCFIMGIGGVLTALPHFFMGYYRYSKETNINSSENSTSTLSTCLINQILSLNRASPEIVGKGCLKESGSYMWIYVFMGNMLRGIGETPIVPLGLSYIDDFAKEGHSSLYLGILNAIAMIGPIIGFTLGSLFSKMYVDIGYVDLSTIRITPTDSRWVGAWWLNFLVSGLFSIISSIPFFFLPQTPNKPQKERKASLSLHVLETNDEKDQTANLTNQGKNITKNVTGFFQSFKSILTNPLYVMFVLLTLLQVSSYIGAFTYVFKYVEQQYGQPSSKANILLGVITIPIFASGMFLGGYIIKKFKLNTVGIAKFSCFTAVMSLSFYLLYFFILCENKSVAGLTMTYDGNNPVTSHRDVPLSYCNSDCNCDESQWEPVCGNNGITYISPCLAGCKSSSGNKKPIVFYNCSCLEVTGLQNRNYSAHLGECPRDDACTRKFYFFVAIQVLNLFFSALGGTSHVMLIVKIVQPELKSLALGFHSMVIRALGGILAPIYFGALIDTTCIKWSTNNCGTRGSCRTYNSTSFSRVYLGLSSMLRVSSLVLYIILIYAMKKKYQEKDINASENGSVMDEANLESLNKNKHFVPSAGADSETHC
The data set is described as follows: Drug transporter fluorometric inhibition, OATP1B1. It counts as in vitro ADME. On the procedure:
Drug transporter (fluorometric inhibition)
The percent of control was calculated using the following equation. The percent of inhibition was calculated by subtracting the percent of control from 100. The IC50 value (concentration causing a half-maximal inhibition of the control value) was determined by non-linear regression analysis of the concentration-response curve using the Hill equation.
Compound is the individual reading in the presence of the test compound. T1 is the mean reading in the absence of the test compound. Background (for P-gp and BCRP) is the mean reading in the presence of the highest effective concentration of the reference inhibitor. Background (for OATP1B1, OATP1B3, OAT1, OAT3, and OCT2) is the mean reading in the absence of both the test compound and the substrate.

For the next data set, the target named is CYP2C9 (Homo sapiens, UniProt P11712). As to the kind of experiment: in vitro. It counts as in vitro ADME. On the procedure: (§1) Cytochrome P450 Inhibition (HPLC-UV/VIS and HPLC-MS/MS detection)
(§2) Peak areas corresponding to the metabolite of each substrate were recorded. The percent of control activity was then calculated by comparing the peak area obtained in the presence of the test compound to that obtained in the absence of the test compound. Subsequently, the percent inhibition was calculated by subtracting the percent control activity from 100 for each compound. IC50 values (concentration causing a half-maximal inhibition of control values) were determined by non-linear regression analysis of the concentration-response curve using Hill equation curve fitting.

For a further data set, the system named is CYP1A2. As to the kind of experiment: Cytochrome P450 induction in hepatocytes, CYP1A2. Conditions: hepatocytes from three different human cell lines; 1 μM, 10 μM and 100 μM. The data set is classed as in vitro ADME.
A further data set can be described thus: pKa titration test. It counts as physicochemical. Conditions: range of 3-11.
A short description of data set [1]: LogD7.4 by shake-flask method (pH 7.4 phosphate buffer / n-octanol). The data set is classed as physicochemical. Conditions: for Concentration in pH buffer 7.4: aqueous phase. As for the experimental part:
Log D7.4 was measured with the solvent systems of pH 7.4 phosphate buffer and n-octanol by shake-flask method.

Data set [2] can be described thus: Plasma concentration of SRR G-1 in rats after oral dosing (LC-MS/MS). Conditions: rat, individual animals (R1-R9); for Plasma Conc.: PO 10 mg/kg, listed as SRR G-1 Free Base. It counts as in vivo. An excerpt: The results are shown in Tables 22-24 for each respectively.
For a further data set, the target named is T2, CYP2C8 (Homo sapiens, UniProt P10632).
T2 sequence (P10632 1-490): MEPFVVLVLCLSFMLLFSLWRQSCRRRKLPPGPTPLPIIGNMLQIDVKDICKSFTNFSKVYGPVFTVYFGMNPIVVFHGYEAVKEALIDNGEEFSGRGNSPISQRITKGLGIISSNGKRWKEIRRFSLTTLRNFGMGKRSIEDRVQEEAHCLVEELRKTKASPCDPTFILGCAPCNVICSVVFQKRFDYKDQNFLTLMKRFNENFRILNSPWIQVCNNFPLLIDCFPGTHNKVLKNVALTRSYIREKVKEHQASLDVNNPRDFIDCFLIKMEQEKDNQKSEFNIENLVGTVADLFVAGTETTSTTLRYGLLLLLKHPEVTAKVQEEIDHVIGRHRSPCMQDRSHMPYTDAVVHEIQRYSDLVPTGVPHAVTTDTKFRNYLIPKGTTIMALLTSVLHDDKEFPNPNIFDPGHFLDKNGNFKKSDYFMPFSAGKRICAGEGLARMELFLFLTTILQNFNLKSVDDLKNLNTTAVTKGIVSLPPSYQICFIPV
As to the kind of experiment: in vitro. It counts as in vitro ADME. On the procedure: as §1, §2

The next data set has as its target CYP2D6 (Homo sapiens, UniProt P10635). As to the kind of experiment: in vitro. It counts as in vitro ADME. On the procedure: as §1, §2
The mark [3] stands for this setting: shake-flask, single samples #1-3.

Where “and” joins values, the source holds several entries; their conditions need not be identical. Identical values can stand only once. A value given as a limit tells only on which side of the number the result lay.

CYP2C9, sequence (P11712 whole entry, species assumed): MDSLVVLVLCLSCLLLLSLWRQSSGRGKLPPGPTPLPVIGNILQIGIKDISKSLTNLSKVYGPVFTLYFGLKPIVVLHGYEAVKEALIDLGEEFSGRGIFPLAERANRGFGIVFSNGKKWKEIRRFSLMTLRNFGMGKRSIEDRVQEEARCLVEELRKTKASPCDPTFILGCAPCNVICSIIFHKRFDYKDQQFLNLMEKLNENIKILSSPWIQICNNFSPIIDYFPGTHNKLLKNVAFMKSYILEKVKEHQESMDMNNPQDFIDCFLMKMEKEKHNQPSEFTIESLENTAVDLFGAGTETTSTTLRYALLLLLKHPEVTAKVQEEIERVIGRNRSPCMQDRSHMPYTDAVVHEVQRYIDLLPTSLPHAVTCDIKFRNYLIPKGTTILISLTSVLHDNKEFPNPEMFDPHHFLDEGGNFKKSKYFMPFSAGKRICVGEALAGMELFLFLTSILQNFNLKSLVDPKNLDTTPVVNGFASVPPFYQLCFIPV
CYP2D6, sequence (P10635 whole entry, species assumed): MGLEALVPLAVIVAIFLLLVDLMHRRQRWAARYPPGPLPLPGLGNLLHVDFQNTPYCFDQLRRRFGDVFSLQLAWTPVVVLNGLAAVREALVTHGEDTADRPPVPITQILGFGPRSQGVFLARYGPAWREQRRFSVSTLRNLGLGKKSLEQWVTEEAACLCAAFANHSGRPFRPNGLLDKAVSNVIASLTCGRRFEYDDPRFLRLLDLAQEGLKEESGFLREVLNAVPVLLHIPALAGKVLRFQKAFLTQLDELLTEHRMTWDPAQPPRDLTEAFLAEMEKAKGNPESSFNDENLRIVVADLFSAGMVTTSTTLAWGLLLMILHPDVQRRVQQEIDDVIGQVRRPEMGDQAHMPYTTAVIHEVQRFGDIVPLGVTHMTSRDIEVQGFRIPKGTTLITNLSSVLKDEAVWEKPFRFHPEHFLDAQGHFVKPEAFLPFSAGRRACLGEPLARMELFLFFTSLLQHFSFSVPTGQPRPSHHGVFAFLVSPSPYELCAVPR

One may read the inhibition as the percentage by which the read-out fell short of the control. A lower inhibition goes with a response near the control. On to `CC(=O)c1ccc2c(c1)[C@H]1C=CC[C@H]1[C@@H](c1cc3c(cc1Br)OCO3)N2` [RSS G-1, 1-((3aR,4S,9bS)-4-(6-bromobenzo[d][1,3]dioxol-5-yl)-3a,4,5,9b-tetrahydro-3H-cyclopenta[c]quinolin-8-yl)ethan-1-one], for which, in the data set on YUMM1.7 melanoma cells, the “doubling compared with that seen with the vehicle” value is given as “approximately the same number of doublings as the vehicle”; the Doublings turned out to be 7.9; the “cell count after 4 days of growth (single replicates)” value is 83 tens of thousands and 94 tens of thousands and 79 tens of thousands and 111 tens of thousands and 107 tens of thousands; the “average cell count after 4 days of growth” value is recorded as 94.8 tens of thousands. In addition, at 10 µM the inhibition against OATP1B1 was 91.2%. Also, testing at 10 µM at CYP2C9 gave an inhibition of 50.4%. The CYP1A2 induction entry with CYP1A2 was “induced at both 10 μM and 100 μM in 2 of the 3 cell lines”.
The logP is the decadic logarithm of the partition coefficient of the neutral form, usually between octanol and water. As usually defined, the logD is lipophilicity at a set pH, counting ionised and neutral species. Higher therefore signals a more lipophilic compound. Take `CC(=O)c1ccc2c(c1)[C@@H]1C=CC[C@@H]1[C@H](c1cc3c(cc1Br)OCO3)N2` (single isomer, unassigned) [SRR G-1]: the “doubling compared with that seen with the vehicle” value with YUMM1.7 melanoma cells was “less than 1/10”. Besides, the Doublings in the data set with YUMM1.7 melanoma cells turned out to be 0.6. The “cell count after 4 days of growth (single replicates)” value with YUMM1.7 melanoma cells is 2 tens of thousands (3×) and 3 tens of thousands (2×). The “average cell count after 4 days of growth” value with YUMM1.7 melanoma cells is 2.4 tens of thousands. Also, the pKa by titration entry in the data set “pKa titration test” is “no pKa value was observed”. The “LogP*” value in data set [1] (LogP = LogD(pH) + Log [1 + 10^(pKa −pH)]) was more than 3.22. In addition, the logP in data set [1] (n-octanol / pH 7.4 phosphate buffer, pH 7.4, LogP = LogD(pH) + Log [1 + 10^(pKa −pH)]) is more than 3.22. The compound also yielded a logD in [1] (n-octanol / pH 7.4 phosphate buffer, shake-flask, pH 7.4 phosphate buffer and n-octanol) of more than 3.22. The “Concentration in pH buffer 7.4” value in data set [1] (setting [3]) is less than 0.82 μg/mL; in data set [1] (shake-flask, single samples #1-3, listed as SRR G-1 freebase), less than 0.82 μg/mL. Besides, the “Average of LogD7.4” value in [1] (shake-flask, pH 7.4 phosphate buffer and n-octanol) is listed as more than 3.22. For the same compound, the Concentration in n-octanol in data set [1] (setting [3]) was 1370 µg/mL and 1340 µg/mL. In addition, the LogD7.4 in [1] (setting [3]) is >3.22 and >3.21. For the same compound, the concentration at 1 h in data set [2] (male, plasma, po, 10 mg/kg, time 1.00 h, read-out: Plasma Conc.) came out at 0.00396 µg/mL. Besides, the concentration at 8 h in data set [2] (male, plasma, po, 10 mg/kg, time 8.00 h, read-out: Plasma Conc.) stood at 0.00172 µg/mL. The concentration at 24 h in data set [2] (male, plasma, po, 10 mg/kg, time 24.0 h, LLOQ 0.100 ng/mL, read-out: Plasma Conc.) turned out to be 0.000127 µg/mL. The “Plasma Conc.” value was 1.91 ng/mL and 2.60 ng/mL and 1.23 ng/mL in data set [2] (time 0.500 h); 6.03 ng/mL and 3.15 ng/mL in data set [2] (time 1.00 h); 2.96 ng/mL and 7.56 ng/mL and 2.71 ng/mL in [2] (time 2.00 h); 2.18 ng/mL and 4.67 ng/mL and 1.39 ng/mL in [2] (time 4.00 h); 1.58 ng/mL and 1.47 ng/mL in data set [2] (time 8.00 h); 0.169 ng/mL and BQL in data set [2] (time 24.0 h, LLOQ 0.100 ng/mL). The figures for the inhibition at 10 µM on OATP1B1, against CYP2C8 and on CYP2D6 were 82.5%, 66.7% and 74.3%, respectively. Besides, in the data set with CYP1A2, the CYP1A2 induction entry is “induced at both 1 μM and 10 μM in only 1 of the 3 cell lines”.
